Target: T1, NLRP3 (Homo sapiens, UniProt Q96P20)
T1 construct: host or cells: THP-1 cells differentiated with PMA
Assay: IL-1β Secretion Assay (NLRP3-dependent IL1β secretion in THP1 cells)
Type: cell-based
Settings: PMA-differentiated THP-1 cells; compounds incubated 20 h; 2.5 μM Nigericin 3 h; HTRF IL-1β readout; read-out: IC50 IL-1β Inhibition
Outline: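 THP-1 cells differentiated with 100 ng/mL PMA for 24 h, then given compound (7-point 3-fold series, 1:200 from DMSO) for 20 h in RPMI+5% FBS. NLRP3 activated with 2.5 μM nigericin for 3 h; secreted IL-1β measured by HTRF; IC50 from logistic fit of % inhibition.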

T1 sequence (Q96P20 whole entry): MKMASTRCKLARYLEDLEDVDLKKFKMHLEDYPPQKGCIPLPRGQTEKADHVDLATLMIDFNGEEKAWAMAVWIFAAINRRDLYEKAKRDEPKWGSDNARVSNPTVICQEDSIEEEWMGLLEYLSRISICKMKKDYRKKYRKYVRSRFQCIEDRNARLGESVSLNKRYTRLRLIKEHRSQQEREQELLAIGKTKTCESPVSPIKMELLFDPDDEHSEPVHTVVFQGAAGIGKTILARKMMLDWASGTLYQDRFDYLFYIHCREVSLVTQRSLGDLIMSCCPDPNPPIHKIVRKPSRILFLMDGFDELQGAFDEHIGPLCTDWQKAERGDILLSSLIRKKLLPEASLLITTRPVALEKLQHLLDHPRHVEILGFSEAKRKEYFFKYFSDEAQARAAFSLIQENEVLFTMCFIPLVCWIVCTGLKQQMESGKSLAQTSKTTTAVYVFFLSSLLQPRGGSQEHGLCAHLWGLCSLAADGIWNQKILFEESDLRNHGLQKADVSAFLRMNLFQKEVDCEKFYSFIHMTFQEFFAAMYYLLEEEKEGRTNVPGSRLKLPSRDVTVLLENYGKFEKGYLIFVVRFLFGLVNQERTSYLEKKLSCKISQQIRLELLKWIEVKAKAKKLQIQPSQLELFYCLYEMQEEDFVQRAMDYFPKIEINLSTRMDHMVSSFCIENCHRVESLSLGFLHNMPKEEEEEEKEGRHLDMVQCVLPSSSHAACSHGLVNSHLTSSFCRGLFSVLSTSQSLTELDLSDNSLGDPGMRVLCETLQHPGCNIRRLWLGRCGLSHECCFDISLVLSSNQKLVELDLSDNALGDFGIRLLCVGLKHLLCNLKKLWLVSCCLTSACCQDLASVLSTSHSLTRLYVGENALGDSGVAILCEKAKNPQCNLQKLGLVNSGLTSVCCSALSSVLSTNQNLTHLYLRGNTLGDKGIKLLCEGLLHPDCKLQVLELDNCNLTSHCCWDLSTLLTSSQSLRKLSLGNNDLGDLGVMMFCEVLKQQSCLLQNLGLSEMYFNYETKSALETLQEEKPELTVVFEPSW

COc1ccc(-c2nnc(NC(C)c3cccc(O)c3)n3cncc23)c(CC(F)(F)F)c1 (centres unmarked) [Compound 303, 3-[1-({1-[4-methoxy-2-(2,2,2-trifluoroethyl)phenyl]imidazo[1,5-d][1,2,4]triazin-4-yl}amino)ethyl]phenol]
IC50: < 1 nM

COc1ccc(-c2nnc(N[C@@H]3CCCN(C)C3)n3cncc23)c(OCC(F)(F)F)c1 [Compound 304, 1-[4-methoxy-2-(2,2,2-trifluoroethoxy)phenyl]-N-[(3R)-1-methylpiperidin-3-yl]imidazo[1,5-d][1,2,4]triazin-4-amine]
IC50: 1 to 10 nM

COc1ccc(-c2nnc(N[C@H]3C[C@@](C)(O)C3)n3cncc23)c(OCC(F)(F)F)c1 [Compound 305, (1s,3s)-3-({1-[4-methoxy-2-(2,2,2-trifluoroethoxy)phenyl]imidazo[1,5-d][1,2,4]triazin-4-yl}amino)-1-methylcyclobutan-1-ol]
IC50: 10 to 100 nM

O[C@@H]1CCCC[C@H]1Nc1nnc(-c2ccc(Br)cc2OC(F)F)c2cncn12 [Compound 306, (1R,2R)-2-({1-[4-bromo-2-(difluoromethoxy)phenyl]imidazo[1,5-d][1,2,4]triazin-4-yl}amino)cyclohexan-1-ol]
IC50: 1 to 10 nM

O[C@@H]1CCCC[C@H]1Nc1nnc(-c2ccc(Br)cc2OC(F)(F)F)c2cncn12 [Compound 307, (1R,2R)-2-({1-[4-bromo-2-(trifluoromethoxy)phenyl]imidazo[1,5-d][1,2,4]triazin-4-yl}amino)cyclohexan-1-ol]
IC50: 1 to 10 nM

CN1CCC[C@@H](Nc2nnc(-c3ccc(Br)cc3OC(F)(F)F)c3cncn23)C1 [Compound 312, 1-[4-bromo-2-(trifluoromethoxy)phenyl]-N-[(3R)-1-methylpiperidin-3-yl]imidazo[1,5-d][1,2,4]triazin-4-amine]
IC50: < 1 nM

O[C@@H]1COCC[C@H]1Nc1nnc(-c2ccc(C(F)(F)F)cc2CC(F)(F)F)c2cncn12 [Compound 313, (3S,4R)-4-({1-[2-(2,2,2-trifluoroethyl)-4-(trifluoromethyl)phenyl]imidazo[1,5-d][1,2,4]triazin-4-yl}amino)oxan-3-ol]
IC50: 1 to 10 nM

COc1ccc(-c2nnc(N[C@H]3C[C@@H](CO)C3)n3cncc23)c(CC(F)(F)F)c1 [Compound 314, [(1s,3s)-3-({1-[4-methoxy-2-(2,2,2-trifluoroethyl)phenyl]imidazo[1,5-d][1,2,4]triazin-4-yl}amino)cyclobutyl]methanol]
IC50: 1 to 10 nM

COc1ccc(-c2nnc(N[C@H]3C[C@@](C)(O)C3)n3cncc23)c(C(F)(F)C(F)(F)F)c1 [Compound 315, (1s,3s)-3-({1-[4-methoxy-2-(pentafluoroethyl)phenyl]imidazo[1,5-d][1,2,4]triazin-4-yl}amino)-1-methylcyclobutan-1-ol]
IC50: 100 to 300 nM

COc1ccc(-c2nnc(N[C@@H]3CCCC[C@H]3O)n3cncc23)c(C(F)(F)C(F)(F)F)c1 [Compound 316, (1R,2R)-2-({1-[4-methoxy-2-(pentafluoroethyl)phenyl]imidazo[1,5-d][1,2,4]triazin-4-yl}amino)cyclohexan-1-ol]
IC50: 10 to 100 nM

Cc1ccc(-c2nnc(N[C@@H]3CCCN(C)C3)n3cncc23)c(CC(F)(F)F)c1 [Compound 317, N-[(3R)-1-methylpiperidin-3-yl]-1-[4-methyl-2-(2,2,2-trifluoroethyl)phenyl]imidazo[1,5-d][1,2,4]triazin-4-amine]
IC50: 1 to 10 nM

Cc1ccc(-c2nnc(N[C@H]3C[C@@](C)(O)C3)n3cncc23)c(CC(F)(F)F)c1 [Compound 318, (1s,3s)-1-methyl-3-({1-[4-methyl-2-(2,2,2-trifluoroethyl)phenyl]imidazo[1,5-d][1,2,4]triazin-4-yl}amino)cyclobutan-1-ol]
IC50: 1 to 10 nM

COc1ccc(-c2nnc(N[C@H]3C[C@@](C)(O)C3)n3cncc23)c(C2CC2)c1 [Compound 319, (1s,3s)-3-{[1-(2-cyclopropyl-4-methoxyphenyl)imidazo[1,5-d][1,2,4]triazin-4-yl]amino}-1-methylcyclobutan-1-ol]
IC50: 10 to 100 nM

COc1ccc(-c2nnc(NC3CCNC3=O)n3cncc23)c(C2CC2)c1 (centres unmarked) [Compound 320, 3-{[1-(2-cyclopropyl-4-methoxyphenyl)imidazo[1,5-d][1,2,4]triazin-4-yl]amino}pyrrolidin-2-one]
IC50: 10 to 100 nM

COc1ccc(-c2nnc(N[C@@H]3CCCC[C@H]3O)n3cncc23)c(C2CC2)c1 [Compound 321, (1R,2R)-2-{[1-(2-cyclopropyl-4-methoxyphenyl)imidazo[1,5-d][1,2,4]triazin-4-yl]amino}cyclohexan-1-ol]
IC50: 10 to 100 nM

O[C@@H]1COCC[C@H]1Nc1nnc(-c2ccc(C(F)(F)F)cc2OC(F)(F)F)c2cncn12 [Compound 322, (3S,4R)-4-({1-[2-(trifluoromethoxy)-4-(trifluoromethyl)phenyl]imidazo[1,5-d][1,2,4]triazin-4-yl}amino)oxan-3-ol]
IC50: 10 to 100 nM

CC(Nc1nnc(-c2ccc(C(F)(F)F)cc2OC(F)(F)F)c2cncn12)c1cccc(O)c1 (centres unmarked) [Compound 323, 3-[1-({1-[2-(trifluoromethoxy)-4-(trifluoromethyl)phenyl]imidazo[1,5-d][1,2,4]triazin-4-yl}amino)ethyl]phenol]
IC50: 1 to 10 nM

COCC1CC(Nc2nnc(-c3ccc(C(F)(F)F)cc3OC(F)(F)F)c3cncn23)C1 (centres unmarked) [Compound 324, N-[3-(methoxymethyl)cyclobutyl]-1-[2-(trifluoromethoxy)-4-(trifluoromethyl)phenyl]imidazo[1,5-d][1,2,4]triazin-4-amine]
IC50: 10 to 100 nM

CC(C)(O)C1CC(Nc2nnc(-c3ccc(C(F)(F)F)cc3OC(F)(F)F)c3cncn23)C1 (centres unmarked) [Compound 325, 2-[3-({1-[2-(trifluoromethoxy)-4-(trifluoromethyl)phenyl]imidazo[1,5-d][1,2,4]triazin-4-yl}amino)cyclobutyl]propan-2-ol]
IC50: 10 to 100 nM

COCC1CC(Nc2nnc(-c3ccc(OC)cc3CC(F)(F)F)c3cncn23)C1 (centres unmarked) [Compound 326, N-[3-(methoxymethyl)cyclobutyl]-1-[4-methoxy-2-(2,2,2-trifluoroethyl)phenyl]imidazo[1,5-d][1,2,4]triazin-4-amine]
IC50: 10 to 100 nM

COc1ccc(-c2nnc(NC3CC(C(C)(C)O)C3)n3cncc23)c(CC(F)(F)F)c1 (centres unmarked) [Compound 327, 2-[3-({1-[4-methoxy-2-(2,2,2-trifluoroethyl)phenyl]imidazo[1,5-d][1,2,4]triazin-4-yl}amino)cyclobutyl]propan-2-ol]
IC50: 10 to 100 nM

CN1CCCC(Nc2nnc(-c3ccc(OC(F)F)cc3OC(F)(F)F)c3cncn23)C1=O (centres unmarked) [Compound 328, 3-({1-[4-(difluoromethoxy)-2-(trifluoromethoxy)phenyl]imidazo[1,5-d][1,2,4]triazin-4-yl}amino)-1-methylpiperidin-2-one]
IC50: 10 to 100 nM

CN1CCCC(Nc2nnc(-c3ccc(C(F)(F)F)cc3CC(F)(F)F)c3cncn23)C1=O (centres unmarked) [Compound 329, 1-methyl-3-({1-[2-(2,2,2-trifluoroethyl)-4-(trifluoromethyl)phenyl]imidazo[1,5-d][1,2,4]triazin-4-yl}amino)piperidin-2-one]
IC50: 1 to 10 nM

COc1ccc(-c2nnc(NC3CCCN(C)C3=O)n3cncc23)c(CC(F)(F)F)c1 (centres unmarked) [Compound 330, 3-({1-[4-methoxy-2-(2,2,2-trifluoroethyl)phenyl]imidazo[1,5-d][1,2,4]triazin-4-yl}amino)-1-methylpiperidin-2-one]
IC50: 10 to 100 nM

O[C@@H]1COCC[C@H]1Nc1nnc(-c2ccc(OC(F)F)cc2OC(F)(F)F)c2cncn12 [Compound 331, (3S,4R)-4-({1-[4-(difluoromethoxy)-2-(trifluoromethoxy)phenyl]imidazo[1,5-d][1,2,4]triazin-4-yl}amino)oxan-3-ol]
IC50: 10 to 100 nM

Cc1ccc(-c2nnc(N[C@H]3C[C@@](C)(O)C3)n3cncc23)c(OC(F)(F)F)c1 [Compound 332, (1s,3s)-1-methyl-3-({1-[4-methyl-2-(trifluoromethoxy)phenyl]imidazo[1,5-d][1,2,4]triazin-4-yl}amino)cyclobutan-1-ol]
IC50: 10 to 100 nM

O=C1NCCC1Nc1nnc(-c2ccc(C(F)(F)F)cc2C2CC2)c2cncn12 (centres unmarked) [Compound 333, 3-({1-[2-cyclopropyl-4-(trifluoromethyl)phenyl]imidazo[1,5-d][1,2,4]triazin-4-yl}amino)pyrrolidin-2-one]
IC50: 1 to 10 nM

O[C@@H]1COCC[C@H]1Nc1nnc(-c2ccc(C(F)(F)F)cc2C2CC2)c2cncn12 [Compound 334, (3S,4R)-4-({1-[2-cyclopropyl-4-(trifluoromethyl)phenyl]imidazo[1,5-d][1,2,4]triazin-4-yl}amino)oxan-3-ol]
IC50: 10 to 100 nM

CC1(CO)CC(Nc2nnc(-c3ccc(C(F)(F)F)cc3OC(F)(F)F)c3cncn23)C1 (centres unmarked) [Compound 335, [1-methyl-3-({1-[2-(trifluoromethoxy)-4-(trifluoromethyl)phenyl]imidazo[1,5-d][1,2,4]triazin-4-yl}amino)cyclobutyl]methanol]
IC50: 10 to 100 nM

COc1ccc(-c2nnc(N[C@H]3C[C@](C)(CO)C3)n3cncc23)c(CC(F)(F)F)c1 [Compound 336, [(1r,3r)-3-({1-[4-methoxy-2-(2,2,2-trifluoroethyl)phenyl]imidazo[1,5-d][1,2,4]triazin-4-yl}amino)-1-methylcyclobutyl]methanol]
IC50: 10 to 100 nM

COc1ccc(-c2nnc(NC3CC(C)(CO)C3)n3cncc23)c(CC(F)(F)F)c1 (centres unmarked) [Compound 337, [3-({1-[4-methoxy-2-(2,2,2-trifluoroethyl)phenyl]imidazo[1,5-d][1,2,4]triazin-4-yl}amino)-1-methylcyclobutyl]methanol]
IC50: 10 to 100 nM

COc1ccc(-c2nnc(NC3CC(C(C)(C)O)C3)n3cncc23)c(OC(F)(F)F)c1 (centres unmarked) [Compound 338, 2-[3-({1-[4-methoxy-2-(trifluoromethoxy)phenyl]imidazo[1,5-d][1,2,4]triazin-4-yl}amino)cyclobutyl]propan-2-ol]
IC50: 100 to 300 nM

Source: US20250179078A1, “INHIBITORS OF NLRP3” (PTC THERAPEUTICS, INC., priority 2022, published 2025)
